Experimental findings from publication PMC12256323, “Crustacean methyl farnesoate–binding protein is an insect juvenile hormone–binding protein homolog that inhibits molting” (The Journal of Biological Chemistry, 2025) are described below.

Experiment [1] deals with T1, r-LvMFBP (XP_027209752.1; methyl farnesoate-binding protein, MFBP).
T1 construct: recombinant, E. coli BL21-T1R, HisTALON (His-tag) purified; precursor 215 aa with 16 aa signal peptide, mature 199 aa
Put plainly: isothermal titration calorimetry. The note with it: 20 uM protein, 200 uM ligand, 20 mM Tris-HCl pH 7.5, 30 C. The arrangement: species or system Penaeus vannamei. For orientation: Isothermal titration calorimetry measures the heat released or taken up as one component is titrated into another.

The target is the same in experiment [2]. Put plainly: isothermal titration calorimetry (also surface plasmon resonance). The arrangement: species or system Penaeus vannamei. The settings on record: ITC: 20 uM protein, 200 uM ligand, 20 mM Tris-HCl pH 7.5, 30 C; SPR: immobilized protein, PBST pH 7.4.

The term Kd denotes the constant that tells how readily two partners part at equilibrium. In experiment [1], `CC(C)=CCC/C(C)=C/CC/C(C)=C/C(=O)O` [FA, farnesoic acid] yielded a Kd of 630 µM.

In experiment [2], `COC(=O)/C=C(\C)CC/C=C(\C)CCC=C(C)C` [MF, methyl farnesoate] displayed a dissociation constant Kd of 0.666 µM.

Regarding `COC(C)(C)CCCC(C)C/C=C/C(C)=C/C(=O)OC(C)C` (stereo not drawn) [Met, methoprene], in experiment [1], the equilibrium dissociation constant (Kd) was found to be 34.7 µM.
